Type in all cases: functional
The test system of test [1] is Cancer cell lines. Nature of the test: The concentration to cause 50% cancer cell lethality and the value is the mean value which was obtained from 60 cancer cell line assay.
The subject of test [2] is Cancer cell lines. Nature of the test: concentration to inhibit 50%cancer cell growth and the value is the mean value which was obtained from 60 cancer cell line assay.
In test [3] the test system is Cancer cell lines. Briefly: concentration to inhibit 100%cancer cell growth and the value is the mean value which was obtained from 60 cancer cell line assay. Conditions: read-out: Log TGI (converted).

Where only a bound is given, the exact number is not on record here.

On to `O=C1C=C(N2CC2)C(=O)c2c1nc1n2CCC1`, for which the median lethal concentration (LC50) in the test on Cancer cell lines [1] was greater than 100000 nM. In the test on Cancer cell lines [2], the GI50 is greater than 100000 nM. For the same compound, the total growth inhibition concentration (TGI) with Cancer cell lines [3] was greater than 100000 nM.

In the test with Cancer cell lines [1], `O=C1C(N2CC2)=CC(=O)c2c1nc1n2CCC1` gave a 50% lethal concentration (LC50) of 5500 nM. The same compound gave a GI50 in the test with Cancer cell lines [2] of 363 nM. Moreover, the concentration for total growth inhibition (TGI) in the test with Cancer cell lines [3] is 1350 nM.

For `CC(=O)OC1CCn2c1nc1c2C(=O)C=C(N2CC2)C1=O` (configuration not stated), in the test with Cancer cell lines [1], the 50% lethal concentration (LC50) was 5250 nM. Further, in the test with Cancer cell lines [2], it took 269 nM to inhibit growth by half (GI50). In the test on Cancer cell lines [3], the concentration for total growth inhibition (TGI) was 1070 nM.

Consider `COC1=C(N2CC2)C(=O)c2nc3n(c2C1=O)CCC3`, for which the median lethal concentration (LC50) with Cancer cell lines [1] was 13500 nM. In the test with Cancer cell lines [2], this compound showed a 50% growth inhibitory concentration (GI50) of 708 nM. Further, in the test on Cancer cell lines [3], the TGI is 2510 nM.

`COC1=C(NC(C)=O)C(=O)c2nc3n(c2C1=O)CCC3OC(C)=O` (configuration not stated): the LC50 in the test with Cancer cell lines [1] is 74100 nM. In addition, halving of growth in the test on Cancer cell lines [2] (GI50) required 18600 nM. In addition, the TGI in the test with Cancer cell lines [3] is 38900 nM.

Regarding `CC(=O)NC1=C(C)C(=O)c2c(nc3n2CCC3)C1=O`, the LC50 in the test on Cancer cell lines [1] is 10700 nM. In the test with Cancer cell lines [2], this compound showed a GI50 of 1450 nM. In addition, in the test with Cancer cell lines [3], the TGI was 3720 nM.

With `CC1=C(N2CC2)C(=O)c2nc3n(c2C1=O)CCC3`, the LC50 in the test with Cancer cell lines [1] was 2040 nM. The compound also had a concentration for 50% growth inhibition (GI50) in the test on Cancer cell lines [2] of 18.2 nM. In addition, the concentration for total growth inhibition (TGI) in the test with Cancer cell lines [3] was 105 nM.

Consider `CC(=O)NC1=C(C)C(=O)c2c(nc3n2CCC3OC(C)=O)C1=O` (configuration not stated), for which the LC50 in the test with Cancer cell lines [1] is 18600 nM. This compound showed a GI50 in the test on Cancer cell lines [2] of 1580 nM. Further, the total growth inhibition concentration (TGI) with Cancer cell lines [3] was 4790 nM.

Turning to `CC(=O)OC1CCn2c1nc1c2C(=O)C(C)=C(N2CC2)C1=O` (configuration not stated), in the test on Cancer cell lines [1], the 50% lethal concentration (LC50) is 245 nM. Further, in the test on Cancer cell lines [2], it took 12 nM to inhibit growth by half (GI50). The TGI in the test with Cancer cell lines [3] was 31.6 nM.

These data come from ChEMBL document CHEMBL1129455, “Chemistry of the pyrrolo[1,2-alpha]benzimidazole antitumor agents: influence of the 7-substituent on the ability to alkylate DNA and inhibit topoisomerase II” (1996).
